In experiment [1] the test system is Mus musculus. Briefly: Memory enhancing effect in ICR mouse assessed as reversal of scopolamine-induced amnesia by measuring step-through latencies at 1 mg/kg, po administered 1 hr prior to acquisition trial measured after 24 hrs by passive avoidance test relative to control. Format: functional, organism-based. Set-up: dose 1 mg/kg.
The target in the next experiment is T1, Acetylcholinesterase (Mus musculus, UniProt P21836).
T1 sequence (P21836 whole entry): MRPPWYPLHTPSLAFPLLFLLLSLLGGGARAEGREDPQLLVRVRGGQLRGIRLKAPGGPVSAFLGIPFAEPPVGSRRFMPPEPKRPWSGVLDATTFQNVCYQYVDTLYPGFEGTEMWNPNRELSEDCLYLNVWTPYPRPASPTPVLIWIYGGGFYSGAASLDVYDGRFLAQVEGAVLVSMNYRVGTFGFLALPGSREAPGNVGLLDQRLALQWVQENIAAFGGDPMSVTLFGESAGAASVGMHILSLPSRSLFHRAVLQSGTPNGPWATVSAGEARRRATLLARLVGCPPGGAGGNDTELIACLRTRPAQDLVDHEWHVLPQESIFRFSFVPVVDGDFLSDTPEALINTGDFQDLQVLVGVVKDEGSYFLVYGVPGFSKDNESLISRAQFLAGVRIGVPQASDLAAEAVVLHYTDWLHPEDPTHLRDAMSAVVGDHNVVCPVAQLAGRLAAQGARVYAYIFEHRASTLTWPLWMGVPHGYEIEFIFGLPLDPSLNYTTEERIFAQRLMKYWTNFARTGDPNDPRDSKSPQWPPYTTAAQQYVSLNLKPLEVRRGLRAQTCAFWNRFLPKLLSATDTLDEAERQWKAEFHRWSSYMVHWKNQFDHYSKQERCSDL
Briefly: Inhibition of ICR mouse brain AChE using acetylthiocholine iodide as substrate incubated 10 mins prior to substrate addition measured after 10 mins by Ellman's method.

In experiment [2] the test system is Mus musculus. Briefly: Memory enhancing effect in ICR mouse assessed as reversal of scopolamine-induced amnesia by measuring step-through latencies at 0.5 to 5 mg/kg, po after 1 hr by passive avoidance test. It is filed as functional, organism-based.
In experiment [3] the test system is Mus musculus. As to the kind of experiment: Memory enhancing effect in ICR mouse assessed as reversal of scopolamine-induced amnesia by measuring step-through latencies at 0.25 to 5 mg/kg, po administered 1 hr prior to acquisition trial measured after 24 hrs by passive avoidance test. Format: functional, organism-based.
Experiment [4] deals with Mus musculus. As to the kind of experiment: Memory enhancing effect in ICR mouse assessed as reversal of scopolamine-induced amnesia by measuring step-through latencies at 2 mg/kg, po administered 1 hr prior to acquisition trial measured after 24 hrs by passive avoidance test relative to control. Format: functional, organism-based. The arrangement: dose 2 mg/kg.

Results on nine compounds are retold here after ChEMBL document CHEMBL3112396, “Synthesis of aminoalkyl-substituted coumarin derivatives as acetylcholinesterase inhibitors” (Bioorg Med Chem, 2014).

pIC50: −log10 of the molar value. Activity calls are given as the source filed them. The rule behind the calls is not given here.

What is called pIC50 is −log10 of the IC50, conventionally taken in molar units. Read a high pIC50 as a small IC50.

On to `O=c1ccc2cc(OCCCN3CCCC3)c(O)cc2o1`, for which the result with Mus musculus [1] and with Mus musculus [3] was Active. On Acetylcholinesterase, this compound gave a pIC50 of 5.54. The outcome in the experiment on Mus musculus [2] was inactive.

Compound `O=c1ccc2cc(OCCN3CCCC3)c(O)cc2o1` showed a pIC50 at Acetylcholinesterase of 5.16. Further, the result with Mus musculus [4] and in the experiment with Mus musculus [3] was Active. Further, the result in the experiment on Mus musculus [2] was inactive.

The compound `CCN(CC)CCCOc1cc2ccc(=O)oc2cc1O` had a pIC50 on Acetylcholinesterase of 4.52.

At Acetylcholinesterase, `O=c1ccc2cc(OCCN3CCCCC3)c(O)cc2o1` gave a pIC50 of 4.92. Against the preceding compound, the pIC50 is 0.40 log units higher.

`CCN(CC)CCOc1cc2ccc(=O)oc2cc1O`: at Acetylcholinesterase, the pIC50 is 4.73.

At Acetylcholinesterase, `O=c1ccc2cc(OCCCN3CCCCC3)c(O)cc2o1` had a pIC50 of 4.72.

Regarding `COc1cc2ccc(=O)oc2cc1O` [SCOPOLETIN], the pIC50 against Acetylcholinesterase was 3.32.

As for `COc1ccc2c3c1O[C@H]1C[C@@H](O)C=C[C@@]31CCN(C)C2`, the outcome in the experiment with Mus musculus [1] was Active.

At Acetylcholinesterase, `CC(C)NCCCOc1cc2ccc(=O)oc2cc1O` had a pIC50 of 4.57.
